Reference: patent US20240252454A1, “COMPOSITION COMPRISING AN INHIBITOR OF MITOCHONDRIAL TRANSCRIPTION” (LEAD DISCOVERY CENTER GMBH, priority 2021, published 2024)

How the values were obtained:
Assay in all cases: SRB assay, IMT combined with inhibitor
Format in all cases: cell-based
HELA = HELA (cervix); concentration series of the labelled inhibitor + fixed concentration of IMT (3S)-1-[(2R)-2-[4-(2-chloro-4-fluoro-phenyl)-2-oxo-chromen-7-yl]oxypropanoyl]piperidine-3-carboxylic acid (Table 3: 40 nM, 120 h); negative=synergistic, positive=antagonistic
Summary of the method: (§1)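 Cellular biomass changes were measured by sulforhodamine B staining in medium with 5 mM glucose, at least two independent replicates. Dilution series of MAPK pathway standard-of-care inhibitors were combined with a fixed 40 nM (3S)-1-[(2R)-2-[4-(2-chloro-4-fluoro-phenyl)-2-oxo-chromen-7-yl]oxypropanoyl]piperidine-3-carboxylic acid; growth followed over 120 h versus untreated cells.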

KASUMI-1 = KASUMI-1 (hematological); concentration series of the labelled inhibitor + fixed concentration of IMT (3S)-1-[(2R)-2-[4-(2-chloro-4-fluoro-phenyl)-2-oxo-chromen-7-yl]oxypropanoyl]piperidine-3-carboxylic acid (Table 3: 40 nM, 120 h); negative=synergistic, positive=antagonistic
Summary of the method: as §1

GRANTA-519 = GRANTA-519 (hematological); concentration series of the labelled inhibitor + fixed concentration of IMT (3S)-1-[(2R)-2-[4-(2-chloro-4-fluoro-phenyl)-2-oxo-chromen-7-yl]oxypropanoyl]piperidine-3-carboxylic acid (Table 3: 40 nM, 120 h); negative=synergistic, positive=antagonistic
Summary of the method: as §1

BXPC3 = BXPC3 (pancreas); concentration series of the labelled inhibitor + fixed concentration of IMT (3S)-1-[(2R)-2-[4-(2-chloro-4-fluoro-phenyl)-2-oxo-chromen-7-yl]oxypropanoyl]piperidine-3-carboxylic acid (Table 3: 40 nM, 120 h); negative=synergistic, positive=antagonistic
Summary of the method: as §1

SW620 = SW620 (colon); concentration series of the labelled inhibitor + fixed concentration of IMT (3S)-1-[(2R)-2-[4-(2-chloro-4-fluoro-phenyl)-2-oxo-chromen-7-yl]oxypropanoyl]piperidine-3-carboxylic acid (Table 3: 40 nM, 120 h); negative=synergistic, positive=antagonistic
Summary of the method: as §1

HCT116 = HCT116 (colon); concentration series of the labelled inhibitor + fixed concentration of IMT (3S)-1-[(2R)-2-[4-(2-chloro-4-fluoro-phenyl)-2-oxo-chromen-7-yl]oxypropanoyl]piperidine-3-carboxylic acid (Table 3: 40 nM, 120 h); negative=synergistic, positive=antagonistic
Summary of the method: as §1

A375 = A375 (skin); concentration series of the labelled inhibitor + fixed concentration of IMT (3S)-1-[(2R)-2-[4-(2-chloro-4-fluoro-phenyl)-2-oxo-chromen-7-yl]oxypropanoyl]piperidine-3-carboxylic acid (Table 3: 40 nM, 120 h); negative=synergistic, positive=antagonistic
Summary of the method: as §1

LOVO = LOVO (colon); concentration series of the labelled inhibitor + fixed concentration of IMT (3S)-1-[(2R)-2-[4-(2-chloro-4-fluoro-phenyl)-2-oxo-chromen-7-yl]oxypropanoyl]piperidine-3-carboxylic acid (Table 3: 40 nM, 120 h); negative=synergistic, positive=antagonistic
Summary of the method: as §1

SKMEL5 = SKMEL5 (skin); concentration series of the labelled inhibitor + fixed concentration of IMT (3S)-1-[(2R)-2-[4-(2-chloro-4-fluoro-phenyl)-2-oxo-chromen-7-yl]oxypropanoyl]piperidine-3-carboxylic acid (Table 3: 40 nM, 120 h); negative=synergistic, positive=antagonistic
Summary of the method: as §1

DU145 = DU145 (prostate); concentration series of the labelled inhibitor + fixed concentration of IMT (3S)-1-[(2R)-2-[4-(2-chloro-4-fluoro-phenyl)-2-oxo-chromen-7-yl]oxypropanoyl]piperidine-3-carboxylic acid (Table 3: 40 nM, 120 h); negative=synergistic, positive=antagonistic
Summary of the method: as §1

U87MG = U87MG (brain); concentration series of the labelled inhibitor + fixed concentration of IMT (3S)-1-[(2R)-2-[4-(2-chloro-4-fluoro-phenyl)-2-oxo-chromen-7-yl]oxypropanoyl]piperidine-3-carboxylic acid (Table 3: 40 nM, 120 h); negative=synergistic, positive=antagonistic
Summary of the method: as §1

HT29 = HT29 (colon); concentration series of the labelled inhibitor + fixed concentration of IMT (3S)-1-[(2R)-2-[4-(2-chloro-4-fluoro-phenyl)-2-oxo-chromen-7-yl]oxypropanoyl]piperidine-3-carboxylic acid (Table 3: 40 nM, 120 h); negative=synergistic, positive=antagonistic
Summary of the method: as §1

HEPG2 = HEPG2 (liver); concentration series of the labelled inhibitor + fixed concentration of IMT (3S)-1-[(2R)-2-[4-(2-chloro-4-fluoro-phenyl)-2-oxo-chromen-7-yl]oxypropanoyl]piperidine-3-carboxylic acid (Table 3: 40 nM, 120 h); negative=synergistic, positive=antagonistic
Summary of the method: as §1

MIAPACA2 = MIAPACA2 (pancreas); concentration series of the labelled inhibitor + fixed concentration of IMT (3S)-1-[(2R)-2-[4-(2-chloro-4-fluoro-phenyl)-2-oxo-chromen-7-yl]oxypropanoyl]piperidine-3-carboxylic acid (Table 3: 40 nM, 120 h); negative=synergistic, positive=antagonistic
Summary of the method: as §1

Structure (SMILES) | difference between the calculated combinatorial index (BLISS) and the observed combinatorial effect (HELA) | difference between the calculated combinatorial index (BLISS) and the observed combinatorial effect (KASUMI-1) | difference between the calculated combinatorial index (BLISS) and the observed combinatorial effect (GRANTA-519) | difference between the calculated combinatorial index (BLISS) and the observed combinatorial effect (BXPC3) | difference between the calculated combinatorial index (BLISS) and the observed combinatorial effect (SW620) | difference between the calculated combinatorial index (BLISS) and the observed combinatorial effect (HCT116) | difference between the calculated combinatorial index (BLISS) and the observed combinatorial effect (A375) | difference between the calculated combinatorial index (BLISS) and the observed combinatorial effect (LOVO) | difference between the calculated combinatorial index (BLISS) and the observed combinatorial effect (SKMEL5) | difference between the calculated combinatorial index (BLISS) and the observed combinatorial effect (DU145) | difference between the calculated combinatorial index (BLISS) and the observed combinatorial effect (U87MG) | difference between the calculated combinatorial index (BLISS) and the observed combinatorial effect (HT29) | difference between the calculated combinatorial index (BLISS) and the observed combinatorial effect (HEPG2) | difference between the calculated combinatorial index (BLISS) and the observed combinatorial effect (MIAPACA2)
Cc1cc(C(=O)NOCCO)c(Nc2ccc(I)cc2F)n(C)c1=O [AZD8330, 2-((2-Fluoro-4-iodophenyl)amino)-N-(2-hydroxyethoxy)-1,5-dimethyl-6-oxo-1,6-dihydropyridine-3-carboxamide] | 0.0000 | −0.0326 | −0.0506 | 0.0756 | −0.0037 | −0.0196 | 0.0451 | 0.0047 | 0.0135 | 0.0201 | 0.0579 | 0.0488 | 0.0270 | 0.1347
COc1c(OCCCN2CCOCC2)ccc2c1N=C(NC(=O)c1cnc(N)nc1)N1CCN=C21 [BAY 80-6946, 2-Amino-N-{7-methoxy-8-[3-(4-morpholinyl)propoxy]-2,3-dihydroimidazo[1,2-c]quinazolin-5-yl}-5-pyrimidinecarboxamide] | −0.0260 | 0.0015 | 0.0631 | −0.0082 | −0.0651 | −0.0195 | −0.0033 | −0.0178 | −0.0994 | 0.0423 | 0.0243 | 0.0613 | −0.0273 | 0.0574
O=C(c1ccc(F)c(F)c1Nc1ccc(I)cc1F)N1CC(O)([C@@H]2CCCCN2)C1 [Cobimetinib] | −0.0068 | −0.0232 | −0.0008 | 0.0204 | −0.0609 | −0.0279 | 0.0443 | −0.0754 | −0.0872 | 0.0164 | 0.0347 | 0.0382 | −0.0133 | −0.0673
CC(C)(C)c1nc(-c2cccc(NS(=O)(=O)c3c(F)cccc3F)c2F)c(-c2ccnc(N)n2)s1 [Dabrafenib] | −0.0022 | −0.0274 | −0.0357 | 0.0251 | −0.0699 | 0.0411 | 0.0337 | −0.0384 | −0.0987 | −0.0114 | 0.0044 | 0.0360 | −0.1427 | 0.0508
O=C(c1cc(Cc2n[nH]c(=O)c3ccccc23)ccc1F)N1CCN(C(=O)C2CC2)CC1 [Olaparib] | −0.0307 | −0.0415 | −0.0088 | 0.0315 | 0.0198 | −0.0690 | −0.0650 | −0.0819 |  | 0.0557 | 0.0523 | 0.0068 | −0.0439 | 0.0529
